Experiments:
[1] = test system: apple scab caused by Venturia inaequalis; test: Example 1: bark spray on apple trees, apple leaf scab incidence, severity and % control; type: in vivo; set-up: Apple leaf scab severity: scale not given here; Apple Leaf scab incidence: unit not given here; conditions: for Apple Leaf scab incidence / Apple leaf % control / Apple leaf scab severity: bark spray
Excerpt: (§1) Applicant conducted the following study to determine the effect of a 3-(difluoromethyl)-1-methyl-N-[(3R)-1,1,3-trimethyl-2,3-dihydroinden-4-yl]pyrazole-4-carboxamide bark spray application on common fungal infections in apple and pear trees. Applications were made in late February with a CO2 charged, single-tip hand sprayer. Treatments were applied as a spray to the lower 3 to 4 feet of the tree trunks all the way around the tree. The tree trunks were sprayed until they were wet. If the treatments included a surfactant (see tables), then the treatments included a surfactant at a rate of 3 fl oz/gallon of the spray mix. The apple trees were at bed swell stage. The apple tree trunks were about 5 to 8 inches in diameter. The pear trees were at mid-petal fall with some green leaves emerging. The pear tree trunks were about 10 to 12 inches in diameter. The following rates in grams per active/cm diameter tree trunk are based on an average trunk diameter. A large amount of apple scab naturally developed during this growing season in this location. The effects of the treatments on apple leaf phytotoxicity, apple leaf apple scab incidence, apple leaf scab severity, and apple leaf percent control were observed 113 and 169 days after treatment (“DAT”). The results of this study are below in Tables 1 and 2.

apple trees [2] = test: Example 1: apple leaf phytotoxicity after bark spray; type: in vivo; set-up: scale not given here
Excerpt: as §1

Fabraea leaf spot = test: Example 1: bark spray on pear trees, Fabraea leaf spot control; type: in vivo; conditions: bark spray at mid-petal fall, at this rate and time of development
Excerpt: as §1

Alternaria leaf spot = test: Example 1: bark spray on pear trees, Alternaria leaf spot control; type: in vivo; conditions: bark spray at mid-petal fall, at this rate and time of development
Excerpt: as §1

apple trees [3] = test: Example 2: phytotoxicity on apple trees; type: in vivo
Excerpt: (§2) In this study, the 3-(difluoromethyl)-1-methyl-N-[(3R)-1,1,3-trimethyl-2,3-dihydroinden-4-yl]pyrazole-4-carboxamide treatment was applied at the time of bud swell in mid March on apple tree trunks (treatment 5). The result of this treatment was compared to metconazole treatments applied when the apple trees were dormant (treatments 2 and 3), at the time of bud swell (treatment 4), and a foliar spray applied after petal fall (treatment 6). The control treatment (treatment 1) was applied during bud swell, as well. Four trees were subjected to each treatment.

Water solubility = type: physicochemical
[4] = test system: apple scab caused by Venturia inaequalis; test: Example 2: apple tree trunk treatment, leaf and fruit pest incidence and severity; type: in vivo
Excerpt: as §2

apple scab = conditions: background statement, cited from earlier work
[5] = 113 DAT, 1.16 grams active/cm trunk diameter + 2.3% V/V surfactant
[6] = 169 DAT, 1.16 grams active/cm trunk diameter + 2.3% V/V surfactant
[7] = treatment 5, applied at the time of bud swell in mid March on apple tree trunks, 0.003 grams active/cm trunk diameter + 2.3% V/V surfactant
[8] = 113 DAT, 0.003 grams active/cm trunk diameter + 2.3% V/V surfactant
[9] = 113 DAT, 0.03 grams active/cm trunk diameter + 2.3% V/V surfactant
[10] = 169 DAT, 0.003 grams active/cm trunk diameter + 2.3% V/V surfactant
[11] = 169 DAT, 0.03 grams active/cm trunk diameter + 2.3% V/V surfactant
[12] = first fruit pest, treatment 5, applied at the time of bud swell in mid March on apple tree trunks, 0.003 grams active/cm trunk diameter + 2.3% V/V surfactant
[13] = treatment 2, applied when apple trees dormant, 1.72 grams active/cm trunk diameter + 2.3% V/V surfactant
[14] = treatment 3, applied when apple trees dormant, 1.72 grams active/cm trunk diameter + 2.3% V/V surfactant
[15] = treatment 4, applied at the time of bud swell, 1.72 grams active/cm trunk diameter + 2.3% V/V surfactant
[16] = treatment 6, foliar spray applied after petal fall, 4 oz pr/A, surfactant not given
[17] = 113 DAT, 0.86 grams active/cm trunk diameter + 2.3% V/V surfactant
[18] = 113 DAT, 1.72 grams active/cm trunk diameter + 2.3% V/V surfactant
[19] = 113 DAT, 3.44 grams active/cm trunk diameter + 2.3% V/V surfactant
[20] = 169 DAT, 0.86 grams active/cm trunk diameter + 2.3% V/V surfactant
[21] = 169 DAT, 1.7 grams active/cm trunk diameter + 2.3% V/V surfactant
[22] = 169 DAT, 3.4 grams active/cm trunk diameter + 2.3% V/V surfactant
[23] = first fruit pest, treatment 2, applied when apple trees dormant, 1.72 grams active/cm trunk diameter + 2.3% V/V surfactant
[24] = first fruit pest, treatment 3, applied when apple trees dormant, 1.72 grams active/cm trunk diameter + 2.3% V/V surfactant
[25] = first fruit pest, treatment 4, applied at the time of bud swell, 1.72 grams active/cm trunk diameter + 2.3% V/V surfactant
[26] = first fruit pest, treatment 6, foliar spray applied after petal fall, 4 oz pr/A, surfactant not given

CCCC1COC(Cn2cncn2)(c2ccc(Cl)cc2Cl)O1 (centres unmarked) [Propiconazole + Surfactant, propiconazole]
Apple Leaf scab incidence [1, 5]: 18.78 | Apple leaf % control [1, 5]: 68.3% | Apple leaf scab severity [1, 5]: 8.3 | Apple Leaf scab incidence [1, 6]: 13.38 | Apple leaf % control [1, 6]: 36.3% | Apple leaf scab severity [1, 6]: 4.63 | Apple Leaf Phytotoxicity (apple trees [2]; [5]): 0 | Apple Leaf Phytotoxicity (apple trees [2]; [6]): 0

C[C@@H]1CC(C)(C)c2cccc(NC(=O)c3cn(C)nc3C(F)F)c21 [3-(Difluoromethyl)-1-methyl-N-[(3R)-1,1,3-trimethyl-2,3-dihydroinden-4-yl]pyrazole-4-carboxamide]
control of Fabraea leaf spot (Fabraea leaf spot): failed to provide adequate control | control of Alternaria leaf spot (Alternaria leaf spot): failed to provide adequate control | Phytotoxicity (apple trees [3]; [7]): 0 | Apple Leaf scab incidence [1, 8]: 20 | Apple leaf % control [1, 8]: 88.3% | Apple leaf scab severity [1, 8]: 13.8 | Apple Leaf scab incidence [1, 9]: 23 | Apple leaf % control [1, 9]: 80% | Apple leaf scab severity [1, 9]: 16.3 | Apple Leaf scab incidence [1, 10]: 13.75 | Apple leaf % control [1, 10]: 43.8% | Apple leaf scab severity [1, 10]: 7 | Apple Leaf scab incidence [1, 11]: 13.75 | Apple leaf % control [1, 11]: 46.3% | Apple leaf scab severity [1, 11]: 4.5 | activity against apple scab caused by Venturia inaequalis ([1]; combined with a surfactant and applied as a bark spray, as compared to metconazole and propiconazole): excellent activity | water solubility (Water solubility): low water solubility | Apple Leaf Phytotoxicity (apple trees [2]; [8]): 0 | Apple Leaf Phytotoxicity (apple trees [2]; [9]): 0 | Apple Leaf Phytotoxicity (apple trees [2]; [10]): 0 | Apple Leaf Phytotoxicity (apple trees [2]; [11]): 0 | Fruit pest incidence [4, 12]: 10.25 | Fruit pest severity [4, 12]: 0.638 | Fruit pest incidence [4, 7]: 0.33 | Fruit pest severity [4, 7]: 0.183 | Leaf pest incidence [4, 7]: 0.25 | Leaf pest severity [4, 7]: 0.3

O=C1C2CC=CCC2C(=O)N1SC(Cl)(Cl)Cl (centres unmarked) [Captan, N-trichtoromethylthiocyclohexene-1,2-dicarboximide]
systemic control activity (apple scab): no systemic control activity | effectiveness against apple scab (apple scab; contact fungicide): effective against apple scab

CC1(C)CCC(Cc2ccc(Cl)cc2)C1(O)Cn1cncn1 (centres unmarked) [Metconazole + Surfactant, metconazole]
Phytotoxicity (apple trees [3]; [13]): 0 | Phytotoxicity (apple trees [3]; [14]): 0 | Phytotoxicity (apple trees [3]; [15]): 0 | Phytotoxicity (apple trees [3]; [16]): 0 | Apple Leaf scab incidence [1, 17]: 12.5 | Apple leaf % control [1, 17]: 80% | Apple leaf scab severity [1, 17]: 10 | Apple Leaf scab incidence [1, 18]: 18 | Apple leaf % control [1, 18]: 68.8% | Apple leaf scab severity [1, 18]: 18.3 | Apple Leaf scab incidence [1, 19]: 11.25 | Apple leaf % control [1, 19]: 80% | Apple leaf scab severity [1, 19]: 13.3 | Apple Leaf scab incidence [1, 20]: 18.88 | Apple leaf % control [1, 20]: 31.3% | Apple leaf scab severity [1, 20]: 4.25 | Apple Leaf scab incidence [1, 21]: 15.5 | Apple leaf % control [1, 21]: 27.5% | Apple leaf scab severity [1, 21]: 4.75 | Apple Leaf scab incidence [1, 22]: 7.25 | Apple leaf % control [1, 22]: 62.5% | Apple leaf scab severity [1, 22]: 2.75 | Apple Leaf Phytotoxicity (apple trees [2]; [17]): 0 | Apple Leaf Phytotoxicity (apple trees [2]; [18]): 0 | Apple Leaf Phytotoxicity (apple trees [2]; [19]): 0 | Apple Leaf Phytotoxicity (apple trees [2]; [20]): 0 | Apple Leaf Phytotoxicity (apple trees [2]; [21]): 0 | Apple Leaf Phytotoxicity (apple trees [2]; [22]): 0 | Fruit pest incidence [4, 23]: 33.75 | Fruit pest severity [4, 23]: 2.25 | Fruit pest incidence [4, 24]: 6.67 | Fruit pest severity [4, 24]: 0.333 | Fruit pest incidence [4, 25]: 14.00 | Fruit pest severity [4, 25]: 1.125 | Fruit pest incidence [4, 26]: 2.75 | Fruit pest severity [4, 26]: 0.263 | Fruit pest incidence [4, 13]: 45.0 | Fruit pest severity [4, 13]: 3.0 | Leaf pest incidence [4, 13]: 1.875 | Leaf pest severity [4, 13]: 5.0 | Fruit pest incidence [4, 14]: 10.0 | Fruit pest severity [4, 14]: 0.5 | Leaf pest incidence [4, 14]: 1.000 | Leaf pest severity [4, 14]: 1.7 | Fruit pest incidence [4, 15]: 18.67 | Fruit pest severity [4, 15]: 1.5 | Leaf pest incidence [4, 15]: 0.140 | Leaf pest severity [4, 15]: 2.0 | Fruit pest incidence [4, 16]: 3.67 | Fruit pest severity [4, 16]: 0.350 | Leaf pest incidence [4, 16]: 0.125 | Leaf pest severity [4, 16]: 0.8

— US10051863B2, “Methods for apple scab control” (Valent U.S.A., Corporation, priority 2015, dated 2018)
